According to patent US20110039763A1, “TARGETED ANTIMICROBIAL MOIETIES” (C3 JIAN, INC., priority 2009, published 2011):
“Also recorded” adds a separate entry of the source. Square brackets hold non-standard residues; d marks the D form. Ends that are not written are not given here. dOrn = NCCC[C@@H](N)C(=O)O

These substances were tested on microorganisms (assay: Targeting peptide binding to target microorganisms (Tables 3, 10, 12)). Conditions: data not shown.

Row | Substance | bacterial binding
1 | DAANEA-GGG [BL-1] | no bacterial binding

Same assay, conditions: microorganism(s) the targeting peptide binds; binding in aqueous buffers that varied with peptide solubility, preferably 1x PBS

Row | Substance | Target(s)
2 | 1T-259 (EKLKKILLKLAVCGKAWYTL; Peptide with targeting and/or antimicrobial activity) | F. nucleatum; also recorded: P. gingivalis; also recorded: T. denticola; also recorded: S. mitis; also recorded: S. mutans; also recorded: S. oralis; also recorded: S. sanguinis
3 | 1T-260 (NILYFIHDENQWEPQKAEIFRGSIKHCAWLSS; Peptide with targeting and/or antimicrobial activity) | A. naeslundii; also recorded: P. gingivalis; also recorded: S. epidermidis; also recorded: S. gordonii; also recorded: S. mitis; also recorded: S. mutans; also recorded: S. oralis; also recorded: S. sanguinis
4 | 1T-261 (SFEKNKIENNLKIAQAYIYIKPKPRICQA; Peptide with targeting and/or antimicrobial activity) | F. nucleatum; also recorded: S. mutans; also recorded: S. oralis; also recorded: S. sanguinis
5 | 1T-264 (LEGKFYMAEDFDKTPECFKDYV; Peptide with targeting and/or antimicrobial activity) | S. sanguinis
6 | 1T-266 (RAGTWLVVDEIR; Peptide with targeting and/or antimicrobial activity) | S. sanguinis
7 | 1T-267 (RIKEERKNRSYKFFIWRLFDEKTGFI; Peptide with targeting and/or antimicrobial activity) | A. naeslundii; also recorded: F. nucleatum; also recorded: P. gingivalis; also recorded: T. denticola; also recorded: S. mitis; also recorded: S. mutans; also recorded: S. oralis; also recorded: S. sanguinis
8 | 1T-268 (PITPKKEKCGLGTYAPKNPVFSKSRV; Peptide with targeting and/or antimicrobial activity) | F. nucleatum; also recorded: S. mutans; also recorded: S. oralis; also recorded: S. sanguinis
9 | 1T-269 (PLYVAAVEKINTAKKH; Peptide with targeting and/or antimicrobial activity) | F. nucleatum; also recorded: S. mutans; also recorded: S. oralis; also recorded: S. sanguinis
10 | 1T-270 (VHEFDIQKILQNR; Peptide with targeting and/or antimicrobial activity) | F. nucleatum; also recorded: S. mutans; also recorded: S. oralis; also recorded: S. sanguinis
11 | 1T-272 (QLAPIDKQLKAVKKIAFYESESTAAKAVTVA; Peptide with targeting and/or antimicrobial activity) | F. nucleatum; also recorded: S. mutans; also recorded: S. oralis; also recorded: S. sanguinis
12 | 1T-273 (YNEPNYKWLESYKIYKQRCEDRTGMYYTEET; Peptide with targeting and/or antimicrobial activity) | F. nucleatum; also recorded: P. gingivalis; also recorded: T. denticola; also recorded: S. mitis; also recorded: S. mutans; also recorded: S. oralis
13 | 1T-274 (ETTTEINAIKLHRIKQRSPQGTRRVN; Peptide with targeting and/or antimicrobial activity) | F. nucleatum; also recorded: S. mutans; also recorded: S. oralis; also recorded: S. sanguinis
14 | 1T-282 (ISLVFPAYT; Peptide with targeting and/or antimicrobial activity) | F. nucleatum; also recorded: P. gingivalis; also recorded: S. gordonii; also recorded: S. mitis; also recorded: S. mutans; also recorded: S. oralis; also recorded: S. salivarious; also recorded: S. sanguinis
15 | 1T-286 (LGFFNNKADLVKADTERDNRMSSLKIKDL; Peptide with targeting and/or antimicrobial activity) | S. sanguinis
16 | 1T-287 (KGYPLPFQYRLNNH; Peptide with targeting and/or antimicrobial activity) | P. gingivalis; also recorded: T. denticola; also recorded: S. gordonii; also recorded: S. mitis; also recorded: S. mutans; also recorded: S. oralis; also recorded: S. salivarious; also recorded: S. sanguinis
17 | 1T-288 (RWVGGEPSADIYLSAKDTKT; Peptide with targeting and/or antimicrobial activity) | F. nucleatum; also recorded: S. gordonii; also recorded: S. salivarious; also recorded: S. sanguinis
18 | 1T-289 (EPSADIYLSAKDTKT; Peptide with targeting and/or antimicrobial activity) | F. nucleatum; also recorded: P. gingivalis; also recorded: S. gordonii; also recorded: S. mitis; also recorded: S. mutans; also recorded: S. oralis; also recorded: S. sanguinis
19 | 1T-291 (DMKIIKLYIKILSFLFIKYCNKKLNSVKLKA; Peptide with targeting and/or antimicrobial activity) | A. naeslundii; also recorded: F. nucleatum; also recorded: P. gingivalis; also recorded: T. denticola; also recorded: S. mitis; also recorded: S. mutans; also recorded: S. oralis

Row | Substance | Target(s)
20 | 1T-294 (YDKIADGVFKIGKRGVL; Peptide with targeting and/or antimicrobial activity) | T. denticola
21 | 1T-295 (KYKLKKIIL; Peptide with targeting and/or antimicrobial activity) | S. mitis; also recorded: S. salivarious; also recorded: S. sanguinis
22 | 1T-297 (RSLRLNNALTKLPKLWYNRIKEAFYAYNDYDK; Peptide with targeting and/or antimicrobial activity) | A. naeslundii; also recorded: F. nucleatum; also recorded: T. denticola; also recorded: S. mitis; also recorded: S. mutans; also recorded: S. oralis
23 | 1T-301 (SKLPRVLDASLKL; Peptide with targeting and/or antimicrobial activity) | F. nucleatum; also recorded: S. gordonii; also recorded: S. sanguinis
24 | 1T-304 (STAGEASRRTASEASRRTAAKLRG; Peptide with targeting and/or antimicrobial activity) | P. gingivalis
25 | CHA0 (D[dOrn]KTAA[dOrn]K; not fully specified (bridges)) | P. fluorescens
26 | PF-014 (HPTDNKHN; Peptide with targeting and/or antimicrobial activity) | E. coli; also recorded: C. jeikeium
27 | PF-016 (RKQYDDLSFNFLY; Peptide with targeting and/or antimicrobial activity) | S. epidermidis; also recorded: E. faecalis; also recorded: C. jeikeium
28 | PF-018 (YYKTYFKEV; Peptide with targeting and/or antimicrobial activity) | E. coli; also recorded: C. jeikeium
29 | PF-038 (MAYKDEGKETKFAVKGYKD; Peptide with targeting and/or antimicrobial activity) | M. luteus
30 | PF-039 (MLEEKNKSL; Peptide with targeting and/or antimicrobial activity) | P. mirabilis; also recorded: C. jeikeium
31 | PF-044 (KLKKYIHKPD; Peptide with targeting and/or antimicrobial activity) | S. epidermidis and M. luteus and MRSA and C. jeikeium
32 | PF-047 (NQEPSLQQDKEQKDNKG; Peptide with targeting and/or antimicrobial activity) | S. mutans
33 | PF-050 (SYYLKRREEKGK; Peptide with targeting and/or antimicrobial activity) | S. epidermidis; also recorded: M. luteus; also recorded: E. coli; also recorded: C. jeikeium
34 | PF-054 (VSISRFIGGGHVFNGNNKRNL; Peptide with targeting and/or antimicrobial activity) | S. epidermidis; also recorded: E. coli
35 | PF-055 (GHVFNGNNKRNL; Peptide with targeting and/or antimicrobial activity) | S. mutans
36 | PF-060 (HSSHL; Peptide with targeting and/or antimicrobial activity) | E. coli; also recorded: C. albicans; also recorded: C. jeikeium
37 | PF-062 (MKKKRINNDILGRMIYSSSIDKRNLYNLKYYE; Peptide with targeting and/or antimicrobial activity) | S. epidermidis and M. luteus and E. coli and P. aeruginosa and MRSA and S. pneumoniae and E. faecalis and C. jeikeium

Same assay, conditions: microorganism(s) the targeting peptide binds; binding in aqueous buffers varied with peptide solubility, preferably 1x PBS

Row | Substance | Target(s)
38 | AIEGVIKKGACFKLLRHEMF [PF-167] | S. epidermidis and E. coli and C. albicans and MRSA and C. jeikeium and C. jejuni
39 | HIKETR (Peptide with targeting and/or antimicrobial activity) [PF-222] | S. epidermidis
40 | MKKLVAALAVIVILTGCVYDPVNYDKIHDQEFQDHLRQNG [PF-252] | S. mutans
41 | MLTSRKKRLKKIVEEQNKKDESI [PF-336] | S. mutans; also recorded: E. coli
42 | PEIIKIVSGLL [PF-758] | S. epidermidis and M. luteus and E. coli and MRSA and S. pneumoniae and E. faecalis and C. jeikeium
43 | PF670 (chain 1 TVIVAPMHSGV; chain 2 TVIVAPMHSGV; Peptide with targeting and/or antimicrobial activity) | Mycobacteria spp
44 | PF-097 (QPTQGEQGTRPRRPTPMRGLLI; Peptide with targeting and/or antimicrobial activity) | C. jeikeium
45 | PF-101 (DPVPERQEQACACHRTAKPGK; Peptide with targeting and/or antimicrobial activity) | S. mutans
46 | PF-104 (ERTAVNDLWI; Peptide with targeting and/or antimicrobial activity) | MRSA and C. jeikeium
47 | PF-130 (LQRSDEESMPRRHEKYS; Peptide with targeting and/or antimicrobial activity) | E. faecalis; also recorded: C. jeikeium; also recorded: C. jejuni
48 | PF-131 (RRAAARTKGNRR; Peptide with targeting and/or antimicrobial activity) | S. epidermidis and E. coli and MRSA and C. jeikeium
49 | PF-132 (RPGDGAAEQGRSR; Peptide with targeting and/or antimicrobial activity) | S. epidermidis; also recorded: C. jeikeium
50 | PF-134 (GKAMKRQDCSAL; Peptide with targeting and/or antimicrobial activity) | S. epidermidis; also recorded: C. jeikeium
